Test results published in US4077981A, “Certain 1-alkyl-2-dichlorophenyliminopyrrolidines” (Bayer Aktiengesellschaft, priority 1968, dated 1978).

Experiments:
[1] = system: Boophilus microplus, Biarra strain (resistant); test: In-vitro test for ovicidal effect on ticks (Biarra strain)
Procedure: In-vitro Test for Ovicidal Effect on Ticks
The emulsion concentrate so obtained is diluted with water to the application concentration desired in each case.
After immersion of, in each case, 10 female specimens of the various strains of ticks, the individual ticks are transferred to plastic dishes, the bottom of each of which is covered with a disc of filter paper.

Boophilus, Biarra strain = test: In-vitro test for ovicidal and adulticidal effect on ticks; parameters: species or system Boophilus microplus
Procedure: In-vitro test for ovicidal and adulticidal effect on ticks
The ovicidal effect is determined as stated in Example 1.
In addition, the adulticidal effectiveness of the preparation of the given active compound after 24 hours is determined by ascertaining the voluntary movement of limbs and bodies of the immersed adult ticks after stimulation with a fine needle compared with the voluntary movement of limbs and bodies of the untreated adult ticks. The effectiveness is stated in %, 100% meaning that no movements of any kind of the limbs and bodies were any longer detectable, and 0% signifying that the ticks moved limbs and bodies in normal manner.
The results below were obtained in a similar manner to those in accordance with Example 4.

[2] = Table 2, concentration giving 100% inhibition
[3] = Table 2, concentration giving >50% inhibition
[4] = Table 4, concentration giving 50% inhibition
[5] = Table 4, concentration giving 100% inhibition
[6] = Table 5, concentration giving 50% inhibition
[7] = Table 5, concentration giving 100% inhibition
[8] = Table 1b, concentration giving 100% inhibition
[9] = Table 1b, concentration giving >50% inhibition

| Structure (SMILES) | Ovicidal effect: 100% inhibition with the stated concentration of active compound [1, 2] | Ovicidal effect: >50% inhibition with the stated concentration of active compound [1, 3] | Ovicidal effect: 100% inhibition with the stated concentration of active compound [1, 8] | Ovicidal effect: >50% inhibition with the stated concentration of active compound [1, 9] | further results |
| --- | --- | --- | --- | --- | --- |
| CCCN1CCCC1=Nc1ccc(Br)cc1Cl [Compound 321] | 0.3 % by weight | 0.1 % by weight |  |  |  |
| C=CCN1CCCC1=Nc1ccc(Cl)c(Br)c1 |  |  |  |  | Adulticidal and ovicidal effect: 50% inhibition with the stated concentration of active compound (Boophilus, Biarra strain; [4]): 0.05 % by weight; Adulticidal and ovicidal effect: 100% inhibition with the stated concentration of active compound (Boophilus, Biarra strain; [5]): 0.1 % by weight |
| C=CCCN1CCCC1=Nc1ccc(Cl)cc1C |  |  |  |  | Adulticidal and ovicidal effect: 50% inhibition with the stated concentration of active compound (Boophilus, Biarra strain; [6]): 0.008 % by weight; Adulticidal and ovicidal effect: 100% inhibition with the stated concentration of active compound (Boophilus, Biarra strain; [7]): 0.01 % by weight |
| CN1CCCC1=Nc1ccc(Cl)cc1Br [Compound 341] | 0.1 % by weight | 0.03 % by weight |  |  |  |
| CCN1CCCC1=Nc1ccc(F)c(Cl)c1 |  |  |  |  | Adulticidal and ovicidal effect: 50% inhibition with the stated concentration of active compound (Boophilus, Biarra strain; [4]): 0.1 % by weight; Adulticidal and ovicidal effect: 100% inhibition with the stated concentration of active compound (Boophilus, Biarra strain; [5]): 0.3 % by weight |
| C=CCN1CCCC1=Nc1ccc(Br)cc1Br [Compound 281] | 0.1 % by weight | 0.03 % by weight |  |  |  |
| CN1CCCC1=Nc1cc(Cl)c(Cl)cc1Cl [Compound 131] |  |  | 0.03 % by weight | 0.01 % by weight |  |
| CCCCN1CCCC1=Nc1ccc(Cl)cc1C [Compound 151] |  |  | 0.3 % by weight | 0.1 % by weight |  |
| CCCN1CCCC1=Nc1ccc(Cl)cc1Br [Compound 361] | 0.1 % by weight | 0.03 % by weight |  |  |  |
| C=CCN1CCCC1=Nc1ccc(Br)c(Br)c1 |  |  |  |  | Adulticidal and ovicidal effect: 50% inhibition with the stated concentration of active compound (Boophilus, Biarra strain; [4]): 0.05 % by weight; Adulticidal and ovicidal effect: 100% inhibition with the stated concentration of active compound (Boophilus, Biarra strain; [5]): 0.1 % by weight |
| Cc1cc(Cl)ccc1N=C1CCCN1C(C)(C)C [Compound 231] |  |  | 0.3 % by weight | 0.1 % by weight |  |
| CCN1C(=Nc2ccc(Cl)c(Cl)c2)CCC1C (stereo not shown) [Compound 51] |  |  | 0.1 % by weight | 0.03 % by weight |  |
| CN1CCCC1=Nc1ccc(Br)cc1Br [Compound 251] | 0.1 % by weight | 0.03 % by weight |  |  |  |
| CCCCN1CCCC1=Nc1ccc(Br)cc1C [Compound 461] | 0.3 % by weight | 0.2 % by weight |  |  |  |
| CCCCN1CCCC1=Nc1ccc(Br)c(Cl)c1 [Compound 421] | 0.3 % by weight | 0.2 % by weight |  |  |  |
| C=CCN1CCCC1=Nc1ccc(C)c(Br)c1 |  |  |  |  | Adulticidal and ovicidal effect: 50% inhibition with the stated concentration of active compound (Boophilus, Biarra strain; [6]): 0.03 % by weight; Adulticidal and ovicidal effect: 100% inhibition with the stated concentration of active compound (Boophilus, Biarra strain; [7]): 0.1 % by weight |
| CCN1CCCC1=Nc1ccc(Br)c(Cl)c1 [Compound 401] | 0.1 % by weight | 0.08 % by weight |  |  |  |
| CC(C)CN1CCCC1=Nc1ccc(Cl)cc1Cl [Compound 171] |  |  | 0.1 % by weight | 0.03 % by weight |  |
| CCCN1CCCC1=Nc1ccc(Cl)cc1Cl [Compound 91] |  |  | 0.03 % by weight | 0.01 % by weight |  |
| CCN1CCCC1=Nc1ccc(Br)cc1Cl [Compound 311] | 0.1 % by weight | 0.08 % by weight |  |  |  |
| Cc1cc(Cl)ccc1N=C1CCCN1C [Compound 141] |  |  | 0.3 % by weight | 0.1 % by weight |  |
| C=CCN1CCCC1=Nc1ccc(Br)cc1CC [Compound 441] | 0.3 % by weight | 0.1 % by weight |  |  |  |
| CCCN1CCCC1=Nc1ccc(Cl)c(Cl)c1 [Compound 61] |  |  | 0.03 % by weight | 0.01 % by weight |  |
| CCN1CCCC1=Nc1ccc(Cl)cc1Br [Compound 351] | 0.1 % by weight | 0.03 % by weight |  |  |  |

| Structure (SMILES) | Ovicidal effect: 100% inhibition with the stated concentration of active compound [1, 2] | Ovicidal effect: >50% inhibition with the stated concentration of active compound [1, 3] | Ovicidal effect: 100% inhibition with the stated concentration of active compound [1, 8] | Ovicidal effect: >50% inhibition with the stated concentration of active compound [1, 9] | further results |
| --- | --- | --- | --- | --- | --- |
| CN1CCCC1=Nc1ccc(Cl)c(Cl)c1 [Compound 191] |  |  | 0.3 % by weight | 0.1 % by weight |  |
| CC(C)N1CCCC1=Nc1ccc(Cl)c(Cl)c1 [Compound 121] |  |  | 0.1 % by weight | 0.03 % by weight |  |
| CC1CCC(=Nc2ccc(Cl)c(Cl)c2)N1C (stereo not shown) [Compound 201] |  |  | 0.3 % by weight | 0.1 % by weight |  |
| CCCCN1CCCC1=Nc1ccc(Cl)cc1Cl [Compound 161] |  |  | 0.03 % by weight | 0.01 % by weight |  |
| CN1CCCC1=Nc1ccc(F)cc1Br [Compound 381] | 0.3 % by weight | 0.1 % by weight |  |  |  |
| CC(C)CN1CCCC1=Nc1ccc(Cl)c(Cl)c1 [Compound 111] |  |  | 0.1 % by weight | 0.03 % by weight |  |
| CCCN1CCCC1=Nc1ccc(Br)cc1Br [Compound 271] | 0.3 % by weight | 0.2 % by weight |  |  |  |
| CN1CCCC1=Nc1ccc(Br)cc1Cl [Compound 301] | 0.1 % by weight | 0.05 % by weight |  |  |  |
| CCCCN1CCCC1=Nc1ccc(Br)cc1Cl [Compound 331] | 0.3 % by weight | 0.1 % by weight |  |  |  |
| CCCCN1CCCC1=Nc1ccc(Cl)cc1Br [Compound 371] | 0.03 % by weight | 0.01 % by weight |  |  |  |
| Cc1cc(Cl)ccc1N=C1CCCN1CC(C)C [Compound 101] |  |  | 0.1 % by weight | 0.05 % by weight |  |
| CCN1CCCC1=Nc1ccc(Br)cc1Br [Compound 261] | 0.1 % by weight | 0.05 % by weight |  |  |  |
| C=CCN1CCCC1=Nc1ccc(Br)cc1C [Compound 431] | 0.1 % by weight | 0.03 % by weight |  |  |  |
| CCCCN1CCCC1=Nc1ccc(Br)cc1Br [Compound 291] | 0.3 % by weight | 0.1 % by weight |  |  |  |
| CCN1CCCC1=Nc1ccc(Cl)cc1Cl [Compound 21] |  |  | 0.1 % by weight | 0.01 % by weight |  |
| C=CCN1CCCC1=Nc1ccc(Br)c(Cl)c1 [Compound 411] | 0.3 % by weight | 0.1 % by weight |  |  |  |
| CC(C)(C)N1CCCC1=Nc1ccc(Cl)cc1Cl [Compound 181] |  |  | 0.3 % by weight | 0.1 % by weight |  |
| CCN1CCCC1=Nc1ccc(Cl)c(Cl)c1 [Compound 81] |  |  | 0.3 % by weight | 0.1 % by weight |  |
| C=CCN1CCCC1=Nc1ccc(Cl)cc1Br [Compound 451] | 0.1 % by weight | 0.01 % by weight |  |  |  |
| C=CCN1CCCC1=Nc1ccc(F)c(Br)c1 [Compound 471] | 0.1 % by weight | 0.08 % by weight |  |  |  |
| CC(C)N1CCCC1=Nc1ccc(Cl)cc1Cl [Compound 221] |  |  | 0.1 % by weight | 0.03 % by weight |  |
| CCCN1CCCC1=Nc1ccc(F)cc1Br [Compound 391] | 0.03 % by weight | 0.02 % by weight |  |  |  |
| CCN1CCCC1=Nc1cc(Cl)c(Cl)cc1Cl [Compound 31] |  |  | 0.3 % by weight | 0.1 % by weight |  |
